Values quoted from earlier work in patent US20110290119A1, “ANTIMICROBIAL ELECTRET WEB” (3M Innovative Properties Company, priority 2009, published 2011).

Test system: Ps. aeruginosa (gram negative)
Settings: known

Compound: O=C1OC2(c3cc(I)c(O)c(I)c3Oc3c2cc(I)c(O)c3I)c2c(Cl)c(Cl)c(Cl)c(Cl)c21 [rose bengal, 4,5,6,7-Tetrachloro-3′,6′-dihydroxy-2′,4′,5′,7′-tetraiodo-3H-spiro[isobenzofuran-1,9′-xanthen]-3-one]
- microbial load reduction: not particularly effective
